Test results taken from patent publication US20240043473A1, “NOOTROPIC PEPTIDES FOR TREATING LYSOSOMAL STORAGE DISEASES” (Phoenix Nest Inc., priority 2021, published 2024).
“Also recorded” adds a separate entry of the source. No end group written: not given here.

Legend:
[1] = system: primary hippocampal neurons of Hgsnat^P304L mice; assay: Synaptic protein markers and BDNF in primary hippocampal neuronal cultures (immunocytochemistry); type: cell-based, mouse; settings: 10 μM in culture media
Method: Model and Developmental time points: Primary hippocampal neuronal cultures established from E16 embryos of […] mice.
Method: The hippocampal neurons were cultured until DIV (Day In Vitro) 21 and 50% of media was changed every 3 days. AVP6 at a final concentration of 10 μM was added to the media when plating and during every media change. At DIV21 neurons were fixed and analysed by immunohistochemistry using markers of dendrites (MAP), axons (neurofilament protein, NF-H), and synaptic transmission (PSD95 and BDNF). Synaptic spine architecture and additional protein synaptic markers (Vglut/PSD95 and VAMP) will be studied.
Primary hippocampal neurons were cultured from the brains of embryo at gestational day 16 (E16). The hippocampi were isolated and treated with 2.5% trypsin solution (Sigma-Aldrich, T4674) for 15 min at 37° C. The cells were washed 3 times with Hank's Balanced Salt Solution (HBSS, Gibco, 14025-092) and mechanically dissociated by pipetting, using glass Pasteur pipettes with 3 different opening sizes (3, 2 and 1 mm). Then, they were counted with the viability dye trypan blue (ThermoFisher Scientific, 15250061), using a hemocytometer, and resuspended in Neurohasal media (Gibco, 21103-049) containing L-glutamine, B27, N2, penicillin and streptomycin. […]
Cultured mouse neurons at day in vitro (DIV) 21 or iPSC-derived neurons at D1V21 and DIV28 were fixed in 4% paraformaldehyde and 4% sucrose solution in PBS, pH 7.4, for 20 min. […] Coverslips were washed 3 times again in PBS and mounted on slides using ProLong Gold mounting medium, containing 4′,6-dianiidino-2-phenylindole (DAPI; Invitrogen, Cat #P36935), and analyzed by a Leica SP8-DSL or Leica TCS SPE confocal microscopes (×63 glycerol immersion objectives, N.A. 1.4). Images were processed with Leica Application Suite X (LAS-X) software or Photoshop 2021 (Adobe) and quantified using Fiji-ImageJ 1.50i software (National Institutes of Health, Bethesda, MD, USA). […] Soma or axon areas were defined by TUBB3, NEUN, or NF-M staining and, within this area, the appropriate markers were measured establishing a threshold. […]

BDNF = assay: Mature BDNF levels in dissected hippocampi by Western blot; type: in vivo, mouse
Method: Method: AVP6 was administered intranasally at 50 μg/kg (5 μl/nostril) for 10 consecutive days. After sacrifice, changes in the levels of BDNF, a protein involved in long-term synaptic potentiation and memory consolidation, in the dissected hippocampi of mice were analyzed by Western blots.
The cerebral cortical tissues were homogenized in five volumes of RIPA lysis buffer (50 mM Tris-HCl pH 7.4, 150 mM NaCl, 1% NP-40, 0.25% sodium deoxycholate, 0.1% SDS, 2 mM EDTA, 1 mM PMSF), containing protease and […] inhibitor cocktails (Sigma, cat#4693132001 and 4906837001), using a Dounce homogenizer. The homogenates were kept on ice for 30 min and centrifuged at 13,000 g at 4° C. for 25 min. The supernatant was centrifuged again at 13,000 g for 15 min, the protein concentration in resulting lysates was measured, and 20 μg of protein from each sample was separated by SDS-PAGE on 4-20% precast polyacrylamide gel (Bio-Rad, 4561096). Western blot analyses were performed according to standard protocols using Anti-BDNF and α-tubulin (1:2000, mouse, DSHB) antibodies. Equal protein loading was confirmed by Ponceau S staining and normalized for tubulin immunoreactive band. Detected bands were quantified using ImageJ 1.50i software (National Institutes of Health, Bethesda, MD, USA).

[2] = DIV21, Hgsnat^P311L (P304L) neurons

In the case of “AVP6: N-terminally acetylated Semax, a nootropic peptide having the amino acid sequence of MEHFPGP (SEQ ID NO:1) (Ac-MEHFPGP)”, the “Synapsin 1-positive puncta” value [1, 2] is reported as “increase in Synapsin 1-positive puncta; also recorded: rescues deficit of both proteins”, the “number of BDNF-positive punctae” value [1, 2] is reported as “increase in the number of BDNF-positive punctae; also recorded: rescues deficit of both proteins” and the “levels of VGLUT1+, PSD-95+, SYN1+ and BDNF+ puncta” value ([1]; Hgsnat^P304L neurons) is reported as “rescues reduced levels of synaptic markers; also recorded: significantly increased”. For the same substance, the “mature BDNF levels” value (BDNF; acute (24 h) intranasal administration, MPSIIIC mice) was “significantly increased” and the “mature BDNF levels in hippocampus” value (BDNF; intranasal 50 μg/kg daily for 10 days, 4-month-old Hgsnat-Geo mice) was “significantly increased; also recorded: increases BDNF levels; also recorded: partially restored levels; also recorded: partially rescued”.
